Source: patent US11433042B2, “Methods and compositions for treating metabolic disorders” (Joslin Diabetes Center, Inc., priority 2017, dated 2022)

Assays:
[1] = Acute BAT activation, serum 12,13-diHOME by LC-MS/MS; type: in vivo; details: mice treated for 30 minutes
Experimental: All lipid standards were purchased from Cayman Chemical Company, Avanti Polar Lipids, or Santa Cruz Biotechnology, Inc. C18SPE cartridges were purchased from Biotage. All solvents are of HPLC or LC-MS/MS grade and were acquired from Sigma-Aldrich, Fisher Scientific, or VWR International. Tissue samples were homogenized in 0.1×PBS in Omni homogenizing tubes with ceramic beads at 4° C. Aliquots of 100 μL serum or 1 mg protein of homogenized tissue (measured by BCA) were taken, depending on the experiment. A mixture of deuterium-labeled internal standards was added to each aliquot, followed by 3× volume of sample of cold methanol (MeOH). Samples were vortexed for 5 min and stored at -20° C. overnight. Cold samples were centrifuged at 14,000 g for 10 min, and the supernatant was then transferred to a new tube and 3 mL of acidified H2O (pH 3.5) was added to each sample prior to C18 SPE and performed as previously described (Powell, W. S., Methods Mol Biol. 120, 11-24 (1999)). The methyl formate fractions were collected, dried under nitrogen, and reconstituted in 50 μL MeOH:H2O (1:1, by vol). […] The identity of a component was confirmed using PeakView® software (SCIEX), and quantification was performed using MultiQuantTM software (SCIEX). The quantification of 12,13-diHOME was performed against a standard calibration curve built with 5 points ranging from 0.01 pg/μL to 100 pg/μL. […]

mature brown adipocytes = experiment: In vitro fatty acid uptake (FFA-SS-Luc) in brown adipocytes constitutively expressing luciferase; type: cell-based, mice; details: data not shown
Experimental: Stromal vascular cells were isolated from interscapular brown adipose tissue dissected from TgLuc mice (Stock no. 008450) obtained from The Jackson Laboratory. Cells were immortalized and differentiated into adipocytes in vitro according to the WT-1 protocol (Tseng, Y. H. et al., Mol. Cell Biol. 24, 1918-1929 (2004)). After 1 hour of serum starvation, mature adipocytes were treated with 1 μM 12,13-diHOME or methyl acetate vehicle in 0.1% w/v BSA in PBS for 15 minutes. After this treatment, cells were incubated with 10 μm FFA-SS-Luc (Intrace Medical) and imaged using the IVIS Spectrum CT using sequential 30 s exposures for 1 hour. Data was analyzed using Living Image Software and movies were assembled from individual images using ImageJ. All cultures were confirmed to be Mycoplasma free.

Ephx1 = Ephx1 gene expression by qPCR after CL316,243 treatment; type: in vivo; details: mice, daily 1 mg/kg intraperitoneally for 10 days
Experimental: (§1) Total RNA was extracted from tissue with Trizol and purified using a spin column kit (Zymo Research). RNA (500 ng-1 μg) was reverse transcribed with a high-capacity complementary DNA (cDNA) reverse transcription kit (Applied Biosystems). Real-time PCR was performed in mouse tissues starting with 10 ng of cDNA and forward and reverse oligonucleotide primers (300 nM each) in a final volume of 10 μl with SYBR green PCR Master Mix (Roche). Fluorescence was determined and analyzed in an ABI Prism 7900 sequence detection system (Applied Biosystems). Acidic ribosomal phosphoprotein P0 (ARBP) expression was used to normalize gene expression.

Ephx2 = Ephx2 gene expression by qPCR after CL316,243 treatment; type: in vivo; details: mice, daily 1 mg/kg intraperitoneally for 10 days
Experimental: as §1

Row | Compound | 12,13-diHOME production (serum concentration) [1] | effect of NE treatment added to 12,13-diHOME on FFA-SS-Luc uptake in vitro (mature brown adipocytes) | Ephx1 expression in sWAT (Ephx1) | Ephx2 expression in BAT (Ephx2)
1 | NC[C@H](O)c1ccc(O)c(O)c1 [NE, Norepinephrine, reference compound] | induced | no additive effect |  | 
2 | C[C@H](Cc1ccc2c(c1)OC(C(=O)[O-])(C(=O)[O-])O2)NC[C@H](O)c1cccc(Cl)c1.[Na+].[Na+] [CL316,243] |  |  | increased | increased
